Laboratory results taken from patent US20100280117A1 (Xanodyne Pharmaceuticals, Inc., priority 2009, published 2010).

Experiments:
[1] = system: patients diagnosed with menorrhagia; assay: Menorrhagia Instrument (MI) validation sub-study, treatment cohort; type: in vivo, human (women)
Experimental: The MI was evaluated in a sub population of patients enrolled in a clinical trial designed to assess the safety and efficacy of tranexamic acid at an oral dose of 3.9 g administered daily for up to 5 days during each menstrual period. Two groups of patients were used to assess the MI, one group of patients were those diagnosed with menorrhagia and undergoing treatment. The second group was an age matched normal group. The sub-study was designed: to collect sufficient quantitative data to support the construct-related validation of the MI measures; to collect sufficient quantitative data to support the assessment of meaningful/important change in blood loss to the women; to conduct a test/retest evaluation of the instrument, and to address the reliability of the MI measures.
A total of 262 women completed the MI. […] The MI measures 1-5 were administered at baseline and at the subsequent first and second non-treatment periods for the subjects in the normal cohort The MI measure 6 was administered and data collected, at Month 1 and Month 2. The Ruta Menorrhagia Questionnaire, SF-36 Health Survey and the MI were completed by the subject before visit procedures were performed. A subset of at least 50 subjects were asked to return to the study site 7 to 10 days after the baseline Visit but before the next menstrual period starts to complete the MI a second time.
A total of 177 patients were enrolled into the sub-study. […] The 149 patients remaining were intended to be age matched. The majority of patients in the study were in their late 30's or early 40's. Because of the difficulty of enrolling sufficient numbers of women with normal menstrual periods in this age bracket 18 evaluable patients were not age matched. A total of 131 evaluable patients were age matched. A sub-set of 80 evaluable patients participated in the test/retest segment of the validation. Of these patients 11 were evaluable but not age matched. Data from all 80 patients were used for statistical evaluation of the test/re-test correlations.
The following Measures were summarized and statistically analyzed: • MI measure1—Blood Loss Rating • MI measure 2—Limitation of Work Outside or Inside the Home • MI measure 3—Limitation of Physical Activities • MI measure 4—Limitation of Social or Leisure Activities • MI measure 6/6a/6b—Menstrual Blood Loss During Last Period • MI measure 6c—Meaningfulness of Change in Menstrual Blood Loss
The MI consisted of 4 individual measures (1-4) that were analyzed separately for validation. No summative scale was derived. […] Measures 6, 6a and 6b dealt with menstrual blood loss relative to the previous menstrual period. The answers to the measures in the subparts of measure 6, were combined to produce a 15 point rating scale. The scale values range from −7 to +7 with −7 representing a very great deal worse menstrual blood loss than the previous period, and +7 representing a very great deal better menstrual blood loss than the previous period. The midpoint (0) represents the perception of about the same menstrual blood loss as the previous period.
The ability to detect change required that values for the item or instrument change when the concept it measures changed. In order to measure the MI items ability to detect change, longitudinal data were evaluated focusing primarily on the changes from baseline to month 1. Differences in proportions and comparisons between treatment and normal groups were compared using chi-square statistics (the Stuart-Maxwell test testing marginal homogeneity for all categories simultaneously). […] The Cohen Effect Size was computed by taking the mean change in measure score (baseline to month 1) and dividing that by the standard deviation of mean baseline score.^2 ^2 Cohen, J. J. (1988). Statistical power analysis for the behavioral sciences (p. 8). Erlbaum: Hillsdale, N.J.

[2] = system: heavy menstrual bleeding; details: cited from earlier work
[3] = Randomized single-dose 4-way crossover bioequivalence/bioavailability study, fasting; set-up: species or system human (healthy female volunteers); details: female, human, in vivo, iv
[4] = system: women with menorrhagia; assay: Example VIII double-blind placebo-controlled clinical study, six treated menstrual periods
Experimental: (§1) This was a multi-center, double-blind, placebo-controlled, parallel-group study.
Menstrual blood loss (MBL) was assessed during the entire menstrual period by the alkaline hematin test (AHT) method. Measures from the Menorrhagia Instrument (FIG. 1) were also administered immediately after each menstrual period under investigation. Subjects reported large stains exceeding the capacity of sanitary protection (and other patient reported outcome [PRO] items) during the menstrual period in daily diaries.
For the Primary Endpoint, the objective reduction in menstrual blood loss (MBL) during the entire menstrual period as assessed by the AHT Method was assessed.
For the Secondary Endpoints, the Limitation in Social Leisure Activities (LSLA) and the Limitation in Physical Activities (LPA) scores from the Menorrhagia Instrument (MI measures #4 and #3, respectively) and the total number of large stains responder analysis during the menstrual period from subject diaries were assessed.
For the Secondary Endpoints, assessment of the following were included, Menstrual Blood Loss (MBL) assessment score (MI measure #1), Limitation in Work Outside or Inside the Home (LWH) score (MI measure #2), and subject assessment of meaningfulness score from the MI (Measure #6) (used for the MBL responder analysis).
(§2) The efficacy results were based on the modified ITT (mITT) populations.

[5] = system: heavy menstrual bleeding; details: open label uncontrolled, 849 patients; cited from earlier work
[6] = system: women with menorrhagia; assay: Example VII double-blind placebo-controlled clinical study, three treated menstrual periods; details: for proportion of responders (reduction in MBL and meaningful improvement, MI measure 6c): after first treated cycle, p<0.0001 vs placebo
Experimental: as §1
The primary objective of the study was to determine the efficacy of a 1.95 gm/day of tranexamic acid (650 mg orally three times daily, TID) and 3.9 gm/day of tranexamic acid (1.3 gm orally three times daily, TID) administered during menstruation for up to 5 days (maximum of 15 doses) to reduce menstrual blood loss in women with objective evidence of heavy menstrual bleeding.
The secondary objective of the study was to determine the improvement with administration of 1.95 gm/day or 3.9 gm/day of tranexamic acid in women with heavy menstrual bleeding in their symptoms including, Limitation in Social Leisure Activities (LSLA) and Limitation in Physical Activities (LPA) scores from the Menorrhagia Instrument Measures (FIG. 1). Further the objective was to determine the safety of the 1.95 gm/day and 3.9 gm/day of the modified release tranexamic acid formulation administered during menstruation.
All periods were evaluated for the secondary endpoints, and for safety of tranexamic acid at an oral dose of 1.3 gm or placebo administered three (3) times daily for up to five consecutive (5) days (maximum of 15 doses) during menstruation.
Menstrual blood loss (MBL) was assessed during the entire menstrual period by the alkaline hematin test (AHT) method. The Menorrhagia Instrument Measures (FIG. 1) were also administered immediately after each menstrual period under investigation. For the Primary Endpoint, the objective reduction in menstrual blood loss (MBL) during the entire menstrual period as assessed by the AHT Method was assessed.
For the Secondary Endpoints, the scores for Limitation in Social Leisure Activities (LSLA) and the scores for Limitation in Physical Activities (LPA) from the Menorrhagia Instrument Measures (MI), measures #4 and #3, respectively) were assessed.
For the Secondary Endpoints the data collected included at least; Menstrual Blood Loss (MBL) assessment score (MI measure 1), Limitation in Work Outside or Inside the Home (LWH) score (MI item 2), and subject assessment of meaningfulness score from the MI (measure 6) (used for the MBL responder analysis).
as §2

[7] = treatment group, 3.9 g daily, score 1-5, n 126
[8] = treatment group, baseline to month 1
[9] = treatment group, Cohen effect size
[10] = women on treatment who reported a meaningful improvement
[11] = 3.9 g/day compared with placebo

**Q.** Which “calculated effect size, range over the four MI items” value ([1]; treatment group) does the source give for `NC[C@H]1CC[C@H](C(=O)O)CC1` [tranexamic acid] here?
**A.** Its value is −0.9 to −1.2.

**Q.** And the “mean change in response from baseline to month 1, range over the four MI items” value ([1]; treatment group)?
**A.** The value was −0.76 to −1.16.

**Q.** What about the “MI Item 1 self-perceived blood loss, Month 1 mean” value ([1]; treatment group, 3.9 g daily oral up to 5 days, score 1-4, n 126) of the same molecule?
**A.** Its value is 2.49.

**Q.** And the “MI Item 2 limit you in your work, Month 1 mean” value [1, 7]?
**A.** The value was 2.12.

**Q.** And the “MI Item 3 limit you in your physical activities, Month 1 mean” value [1, 7]?
**A.** Its value is 2.13.

**Q.** What about the “MI Item 4 limit you in your social/leisure activities, Month 1 mean” value [1, 7] of the same molecule?
**A.** Its value is 2.00.

**Q.** What about the “MI Item 1 self-perceived blood loss, mean change” value [1, 8] of the same molecule?
**A.** The value was −0.76.

**Q.** What about the “MI Item 2 limit you in your work, mean change” value [1, 8] of the same molecule?
**A.** The value was −0.93.

**Q.** What about the “MI Item 3 limit you in your physical activities, mean change” value [1, 8] of the same molecule?
**A.** Its value is −1.16.

**Q.** And the “MI Item 4 limit you in your social/leisure activities, mean change” value [1, 8]?
**A.** Its value is −1.06.

**Q.** And the “women on treatment who reported a meaningful improvement” value ([1]; treatment group, month 1, MI measure 6/6c)?
**A.** Its value is 78.6%.

**Q.** What about the “MI Item 2 limit you in your work, Effect Size” value [1, 9] of the same molecule?
**A.** The value was −0.939.

**Q.** And the “MI Item 3 limit you in your physical activities, Effect Size” value [1, 9]?
**A.** The value was −1.221.

**Q.** What about the “MI Item 4 limit you in your social/leisure activities, Effect Size” value [1, 9] of the same molecule?
**A.** The value was −1.000.

**Q.** And the “MI Item 1 self-perceived blood loss, Effect Size” value ([1]; treatment group, Cohen effect size, mean change / SD of baseline)?
**A.** Its value is −1.226.

**Q.** What about the “improvement in MI item 3 (physical activities)” value [1, 10] of the same molecule?
**A.** The value was 1.29.

**Q.** What about the “improvement in MI item 4 (social/leisure activities)” value [1, 10] of the same molecule?
**A.** Its value is 1.17.

**Q.** What about the “efficacy in the treatment of HMB” value ([2]; doses of ˜4 g/day (typically 1 g every 6 hours), immediate-release) of the same molecule?
**A.** Its value is “effective”.

**Q.** What about the side effects ([2]; doses of ˜4 g/day (typically 1 g every 6 hours)) of the same molecule?
**A.** The side effects was “few side effects”.

**Q.** What about the “reduction of heavy menstrual bleeding” value ([2]; research from European countries) of the same molecule?
**A.** Its value is 40-50%.

**Q.** What about the clearance [3] of the same molecule?
**A.** Its clearance is 137 mL/min.

**Q.** And the half-life [3]?
**A.** Its half-life is 612 min.

**Q.** And the “LWH (MI measure #2)” value [4, 11]?
**A.** Its value is “significantly reduced”.

**Q.** And the “subjects' assessment of MBL (MI measure #1)” value [4, 11]?
**A.** Its value is “significantly reduced”.

**Q.** What about the “mean LPA score, change from baseline” value ([4]; 3.9 g/day, MI measure 3) of the same molecule?
**A.** The value was “significant treatment-related reductions”.

**Q.** What about the “mean LSLA score, change from baseline” value ([4]; 3.9 g/day, MI measure 4) of the same molecule?
**A.** Its value is “significant treatment-related reductions”.

**Q.** What about the “proportion of responders (reduction in MBL and meaningful improvement, MI measure #6c)” value ([4]; 3.9 g/day, after first treated cycle, p<0.0001 vs placebo) of the same molecule?
**A.** The value was 65.4%.

**Q.** And the “regression slope of MBL response over six menstrual cycles” value ([4]; 3.9 g/day, p=0.615)?
**A.** Its value is −0.90 mL/cycle.

**Q.** And the “women satisfied with the treatment” value [5]?
**A.** Its value is 80%.

**Q.** And the “clinical relevance of mean reduction in menstrual blood loss (criteria: >50 mL; at least 36 mL meaningful)” value ([6]; 1.9 and 3.9 g/day)?
**A.** The value was “met both criteria for a clinically meaningful result”.

**Q.** What about the “proportion of responders (reduction in MBL and meaningful improvement, MI measure 6c)” value ([6]; 1.95 g/day) of the same molecule?
**A.** The value was 58.3%.

**Q.** What about the “LWH (MI measure 2)” value [6, 11] of the same molecule?
**A.** The value was “significantly reduced”.

**Q.** What about the “subjects' assessment of MBL (MI item 1)” value [6, 11] of the same molecule?
**A.** Its value is “significantly reduced”.

**Q.** And the “proportion of responders (reduction in MBL and meaningful improvement, MI measure 6c)” value ([6]; 3.9 g/day)?
**A.** Its value is 71.0%.

**Q.** And the “mean LPA score, change from baseline” value ([6]; Limitation in Physical Activities, MI measure 3)?
**A.** Its value is “Significant treatment-related reductions”.

**Q.** What about the “mean LSLA score, change from baseline” value ([6]; Limitation in Social Leisure Activities, MI measure 4) of the same molecule?
**A.** The value was “Significant treatment-related reductions”.
